Values joined by “and” are separate entries in the source; they are usually repeats but may differ in a detail not shown here. Equal entries are not always repeated.
Columns and labels:
[1] = system: A-549 (lung cancer cell line); experiment: Antiproliferative assay (MTT), A-549; assay type: cell-based; conditions: Homo sapiens, A549; read-out: Antiproliferative Activity IC50 ± SEM (µM) A-549
Description: (§1) The antiproliferative activity of pyrazoline hybrids 8–17 was tested against the four human cancer cell lines Panc-1 (pancreatic cancer cell line), MCF-7 (breast cancer cell line), HT-29 (colon cancer cell line), and A-549 (lung cancer cell line) using the MTT assay and doxorubicin as the reference drug. See Appendix SA (Supplementary File).
4.2. Biological evaluation
4.2.1. Cytotoxic activity using MTT Assay and evaluation of IC50 […]
96-well flat-bottomed cell culture plates were used to seed the cells at a […]
of 10^4 cells mL-1. The medium was aspirated from all the wells of culture plates after 24 h followed by the addition of synthesized compounds (in 200 μL medium to yield a final concentration of 0.1% (v/v) dimethyl sulfoxide) into individual wells of the plates. Four wells were designated to a single compound. The plates were allowed to incubate at 37°C for 96 h. Afterwards, the medium was aspirated and 3 -[4,5-dimethylthiazol-2-yl]-2,5-diphenyltetrazolium bromide (MTT) (0.4 mg/mL) in medium was added to each well and subsequent ly incubated for 3 h. The medium was aspirated and 150 μL dimethyl sulfoxide (DMSO) was added to each well. The plates were vortexed followed by the measurement of absorbance at 540 nm on a microplate reader. The results were presented as inhibition (%) of proliferation in contrast to controls comprising 0.1% 4.2.1.2. Assay for antiproliferative effect
(§2) To explore the antiproliferative potential of compounds propidium iodide fluorescence assay was performed using different cell lines such as Panc -1 (pancreas cancer cell line), MCF-7 (breast cancer cell line), HT-29 (colon cancer cell line) and A-549 (epithelial cancer cell line), respectively. To calculate the total nuclear DNA, a fluorescent dye (propidium iodide, PI) is used which can attach to the DNA, thus offering a quick and precise technique. PI cannot pass through the cell membrane and its signal intensity can be considered as directly proportional to quantity of cellular DNA. Cells whose cell membranes are damaged or have changed permeability are counted as dead ones. The assay was performed by seeding the cells of different cell lines at a density of 3000-7500 cells/well (in200μl medium) in culture plates followed by incubation for 24h at 37 °C in humidified 5%CO2/95% air atmospheric conditions. The medium was removed; the compounds were added to the plates at 10 μM concentrations (in 0.1% DMSO) in triplicates, followed by incubation for 48h. DMSO (0.1%) was used as control. After incubation, medium was removed followed by the addition of PI (25 μl, 50μg/mL in water/medium) to each well of the plates. At - 80 °C, the plates were allowed to freeze for 24 h, followed by thawing at 25 °C. A fluorometer (Polar-Star BMG Tech) was used to record the readings at excitation and emission wavelengths of 530 and 620 nm for each well. The percentage cytotoxicity of compounds was calculated using […]
(§3) Where ATC= Absorbance of treated cells and AC= Absorbance of control. Erlotinib was used as positive control in the assay. […]

[2] = system: Panc-1 (pancreatic cancer cell line); experiment: Antiproliferative assay (MTT), Panc-1; assay type: cell-based; conditions: Homo sapiens, read-out: Antiproliferative Activity IC50 ± SEM (µM) Panc-1
Description: as §1, with “File). […]” for “File).”
(§4) 4.2.1.2. Assay for antiproliferative effect
as §2, §3

caspase-3 = experiment: Caspase 3 activation assay; assay type: cell-based, human; conditions: MCF-7 cells; for Caspase–3 Fold Change: versus untreated control
Excerpt: Compounds 12 and 17 were studied for their effects on caspase-3 levels in MCF-7 (breast cancer cell line) and staurosporine as a reference (503.00 ± 4 pg/mL). […] The aforementioned results imply that caspase-3 overexpression may be a contributing factor in the antiproliferative effects of the investigated compounds. […]
4.2.3. Caspase-3 activation assay
Allow all reagents to reach room temperature before use. Gently mix all liquid reagents prior to use. Determine the number of 8-well strips needed for the assay. Insert these in the frame(s) for current use. Add 100 μl of the Standard Diluent Buffer to the zero standard wells. Well(s) reserved for chromogen blank should be left empty. Add 100 μl of standards and controls or diluted samples to the appropriate microtiter wells. The sample dilution chosen should be optimized for each experimental system. Tap gently on side of plate to mix. Cover wells with plate cover and incubate for 2 hours at room temperature. Thoroughly aspirate or decant solution from wells and discard the liquid, Wash wells 4 times. Pipette 100 μl of Caspase-3 (Active) Detection Antibody solution into each well except the chromogen blank(s). Tap gently on the side of the plate to mix. Cover plate with plate cover and incubate for 1 hour at room temperature. Thoroughly aspirate or decant solution from wells and discard the liquid, Wash wells 4 times. Add 100 μl Anti-Rabbit IgG HRP Working Solution to each well except the chromogen blank(s). Prepare the working dilution as described in Preparing IgG HRP. Cover wells with the plate cover and incubate for 30 minutes at room temperature. Thoroughly aspirate or decant solution from wells and discard the liquid. Wash wells 4 times. Add 100 μl of Stabilized Chromogen to each well. The liquid in the wells will begin to turn blue. Incubate for 30 minutes at room temperature and in the dark. The incubation time for chromogen substrate is often determined by the microtiter plate reader used. Many plate readers have the capacity to record a maximum optical density (O.D.) of 2.0. The O.D. values should be monitored, and the substrate reaction stopped before the O.D. of the positive wells exceeds the limits of the instrument. The O.D. values at 450 nm can only be read after the Stop Solution has been added to each well. If using a reader that records only to 2.0 O.D., stopping the assay after […]
Add 100 μl of Stop Solution to each well. Tap side of plate gently to mix. The solution in the wells should change from blue to yellow. Read the absorbance of each well at 450 nm having blanked the plate reader against a chromogen blank composed of 100 μl each of Stabilized Chromogen and Stop Solution. Read the plate within 2 hours after adding the Stop Solution. Use a curve fitting software to generate the standard curve. A four-parameter algorithm provides the best standard curve fit. Read the concentrations for unknown samples and controls from the standard curve. Multiply value(s) obtained for sample(s) by the appropriate dilution factor to correct for the dilution in step 3. Samples producing signals greater than that of the highest standard should be diluted in Standard Diluent Buffer and reanalyzed. […]

[3] = system: HT-29 (colon cancer cell line); experiment: Antiproliferative assay (MTT), HT-29; assay type: cell-based; conditions: Homo sapiens, read-out: Antiproliferative Activity IC50 ± SEM (µM) HT-29
Description: as §1, with “File). […]” for “File).”
as §4, §2, §3

[4] = system: four human cancer cell lines (A-549, MCF-7, Panc-1, HT-29); experiment: Antiproliferative assay, mean of four cancer cell lines (GI50); assay type: cell-based; conditions: mean over A-549, MCF-7, Panc-1, HT-29

SMILES	IC50 [1]	IC50 [2]	Caspase–3 Conc (caspase-3)	Caspase–3 Fold Change (caspase-3)	IC50 [3]	IC50 [4]
COc1ccc(C2CC(c3ccc(NC(=O)COc4ccc(C5=NNC(c6ccc(OC)c(OC)c6)C5)cc4)cc3)=NN2)cc1 (centres unmarked) [Compound 17, 2-(4-(5-(3,4-Dimethoxyphenyl)-4,5-dihydro-1H-pyrazol-3-yl)phenoxy)-N-(4-(5-(4-methoxyphenyl)-4,5-dihydro-1H-pyrazol-3-yl)phenyl)acetamide]	1.2 ± 0.1 µM	1.3 ± 0.1 µM	469.50 ± 5 pg/mL and 469.50 ± 4 pg/mL	7.2	1.3 ± 0.1 µM	1.2 µM
COc1ccc(C2CC(c3ccc(OCC(=O)Nc4ccc(C5=NNC(c6ccc(OC)c(OC)c6)C5)cc4)cc3)=NN2)cc1 (centres unmarked) [Compound 12, 2-(4-(5-(4-Methoxyphenyl)-4,5-dihydro-1H-pyrazol-3-yl)phenoxy)-N-(4-(5-(3,4-dimethoxyphenyl)-4,5-dihydro-1H-pyrazol-3-yl)phenyl)acetamide]	1 ± 0.1 µM	1.1 ± 0.1 µM	543.50 ± 4 pg/mL	8.5	1.2 ± 0.1 µM	1.05 µM
CN[C@@H]1C[C@H]2O[C@@](C)([C@@H]1OC)n1c3ccccc3c3c4c(c5c6ccccc6n2c5c31)C(=O)NC4 [Staurosporine, reference compound]			503.00 ± 4 pg/mL	8.0		
